{
  "source": "patent US20240156764A1",
  "about": "“INHIBITION OF URACIL DNA GLYCOSYLASE IN THE OPEN CONFORMATION” (CASE WESTERN RESERVE UNIVERSITY, priority 2022, published 2024)",
  "key": {"human UDG [1]": {"biological_target": "T1, human UDG (Homo sapiens, UniProt P13051)", "T1 sequence (P13051 1-304 isoform P13051-2)": "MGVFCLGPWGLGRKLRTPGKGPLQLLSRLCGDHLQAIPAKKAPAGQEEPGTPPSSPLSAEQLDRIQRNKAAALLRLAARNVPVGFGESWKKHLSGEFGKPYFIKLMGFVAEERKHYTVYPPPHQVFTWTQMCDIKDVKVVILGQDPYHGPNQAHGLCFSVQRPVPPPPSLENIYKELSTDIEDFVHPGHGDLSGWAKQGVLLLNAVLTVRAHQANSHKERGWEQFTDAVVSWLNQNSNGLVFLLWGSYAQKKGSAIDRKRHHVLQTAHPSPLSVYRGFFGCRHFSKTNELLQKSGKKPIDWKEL", "test": "Gel-based DNA cleavage assay with a single U:A basepair", "assay_type": "biochemical", "design": "6xHis; purchased XTAL Biostructures; host or cells: Sf9 insect cells", "description": "20% polyacrylamide nucleic acid urea gel electrophoresis was used to resolve the DNA bands at room temperature, 200 v for 50 min. Analysis and quantification of DNA cleavage were done as follows. A background subtraction step was included using the 23mer from the DNA only lane. […] A single oxo-guanine: cytosine base pair DNA with a Cy3 fluorescent tag on the 3′ end was used (10 nM).\nFollowing pre-incubation occurred for 20 min at 37° C., 2 μL of U:A DNA (500 nM stock) was added to initiate the reaction, total reaction volume of 50 μL/well. Each plate was incubated for 120 min at 37° C. Then, each 96 well plate was sealed and heated at a constant temperature of 95° C. for 55 min using the CFX96 real time system thermocycler. After the heating process, 5 μL of a bromophenol blue denaturing loading dye (20milligrams of bromophenol blue, 9.7 ml of formamide plus 300 μL of 10M NaOH) was added to each reaction well. […] TBE buffer was prepared by dissolving 54 grams of tris base, 28 grams of boric acid, and 4.5 grams of EDTA in 1.0 liter of distilled H2O. Gels were processed at 200V for 60 min in the dark. Gels were imaged based on the fluorescent tags using Typhoon Trio+Variable Mode Imager (Amersham Biosciences) with excitation and emission wavelengths set to 532 nm and 585 nm respectively, photomultiplier tube voltage (PMT) was set to 400V, and pixel size resolution set to 100 μm. Gel data were analyzed using ImageJ software. DNA bands were corrected using a background subtraction step. Percent cleavage was calculated by using fluorescence intensity of the cleaved 23-mer DNA strand divided by the sum of the fluorescence bands (23mer+40mer DNA strands)*100. Relative percent cleavage was generated by using the untreated DMSO condition divided by each treated drug dose*100."}, "human UDG [2]": {"biological_target": "T1, human UDG", "test": "High-throughput screening assay: UDG-mediated unquenching of fluorescent uracil DNA hairpin", "assay_type": "biochemical", "design": "6xHis; purchased XTAL Biostructures; host or cells: Sf9 insect cells", "conditions": "purified human UDG, initial value, read-out: IC50 for the purified human UDG (un-quenching of fluorescence from the DNA hairpin)", "description": "FIGS. 1(A-D) illustrate high-Throughput Small-Molecule Screening for UDG Inhibitors. A: 60 min reaction time-course experiment was performed to measure human UDG enzymatic activity in the presence of 10 nM UDG (red line) or absence of UDG (black line) uracil DNA hairpin (25 nM) only control. Each data point is the average of 12 reaction replicates from a 384-well plate. Error bars represent the standard deviation from the mean. B: Two independent screens using a plate of 320 compounds were plotted on the same graph with the trend line showing a positive correlation between the two runs with an R2 value of 0.711 using y=mx+b. […] Normalized percent activity of UDG-mediated unquenching of fluorescence DNA hairpin is shown. […] Control condition denotes RFU-UDG AVG (DNA alone no protein); the average relative fluorescence unit (RFU) value was computed using a set of 32 replicate wells per screening plate. […]\nThe collection of biologically active molecules was compiled from the LOPAC library (Sigma Aldrich) and Bioactive Compound Library (Selleck Chemicals). […] After 40 min of incubation at room temperature (˜23° C.), fluorescence measurements were done using an Enspire plate reader (Perkin Elmer) at an excitation wavelength of 485 nm and emission wavelength of 520 nm. Compound performance from per plate was calculated and normalized accounting for background fluorescence by the following equation: […]"}},
  "note": "Where “and” joins values, the source holds several entries; their conditions need not be identical. Equal entries are not always repeated.",
  "data": [
    {"smiles": "O=C(O)C1=CC(=C(c2ccc(O)c(C(=O)O)c2)c2ccc(O)c(C(=O)O)c2)C=CC1=O", "note": "[ATA, aurintricarboxylic acid]", "values": [
      {"measurement": "UDG-mediated DNA cutting activity", "setting": "human UDG [1]; ATA 0.46-12.5 μM, UDG 500 pM, DNA 20 nM", "result": "diminishes UDG-mediated DNA cutting activity in a dose-dependent manner"},
      {"measurement": "IC50", "setting": "human UDG [1]; dsDNA oligo with single U:A base pair, gel-based, read-out: average IC50 towards UDG", "result": "700 nM and ~700 nM"},
      {"measurement": "IC50", "setting": "human UDG [1]; estimated, read-out: IC50, DNA cutting", "result": 700, "unit": "nM"},
      {"measurement": "IC50", "setting": "human UDG [2]", "result": 40, "unit": "nM"}
    ]}
  ]
}
